Test results published in article PMC7698965 (Cancers, 2020).
Like-named read-outs stand apart in the source and are kept apart here.

Key:
[1] = system: S. typhimurium TA98; experiment: Ames test; conditions: TA98, positive control NPD 20.0 mg/plate
[2] = system: S. typhimurium TA100; experiment: Ames test; conditions: TA100, positive control NPD 2.0 mg/plate
[3] = system: U87 MG; conditions: 24 h incubation, SRB; cited from earlier work
[4] = system: C6; conditions: cited from earlier work; for IC50: 24 h incubation, SRB
[5] = system: HT-29; conditions: 24 h incubation, SRB; cited from earlier work
[6] = system: U87 MG cells co-cultured with neonatal murine astrocytes; experiment: Confocal microscopy of treated co-cultures (PKH26, DAPI); format: cell-based, human; conditions: IC50,U87 MG doses, 24 h
[7] = system: U87 MG cells; experiment: Cell cycle/DNA content by flow cytometry; format: cell-based, human; conditions: 24 h at IC50 (1 8.0 μM, Sun 32 μM)
[8] = system: astrocytes; experiment: Cell cycle/DNA content by flow cytometry; format: cell-based, mouse; conditions: 24 h at IC50 (1 8.0 μM, Sun 32 μM)
[9] = system: AMPK; conditions: read-out: IC50,Sun,AMPK; cited from earlier work
[10] = system: RSK1; conditions: read-out: IC50,Sun,RSK1; cited from earlier work
[11] = system: F98-cell; design: method as in earlier work; conditions: post-neutron irradiation (2 Gy), cited from earlier work
[12] = system: U87 MG human glioblastoma; experiment: In vivo anti-glioblastoma activity
[13] = 1 at 1 mg/kg/day, Tmz at 4 mg/kg/day, ip three times a week

Nc1ccc([N+](=O)[O-])cc1N [Positive control, 4-Nitro-o-phenylendiamine]
Number of revertants [1]: 295 ± 11 | Number of revertants [2]: 704 ± 6

C#Cc1cccc(Nc2ncnc3cc(OCCOC)c(OCCOC)cc23)c1 [Erl, erlotinib]
IC50 [3]: 63 ± 5 µM | IC50 [4]: > 100 µM | IC50 [5]: > 100 µM

CCN(CC)CCNC(=O)c1c(C)[nH]c(/C=C2\C(=O)Nc3ccc(F)cc32)c1C [Sun, sunitinib]
DAPI nuclei staining [6]: chromatin condensation | U87 MG population (PKH26 dye) compared to the control [6]: decrease of U87 MG population | effect on cell cycle distribution [7]: increase in the percentage of both astrocytes and U87 MG cells in the sub-G1 phase | effect on cell cycle distribution [8]: increase in the percentage of both astrocytes and U87 MG cells in the sub-G1 phase | IC50 [3]: 32 ± 4 µM | IC50 [4]: 36 ± 10 µM | IC50 [5]: 6.25 ± 0.04 µM | IC50 [9]: 0.32 µM | IC50 [10]: […]

CS(=O)(=O)CCNCc1ccc(-c2ccc3ncnc(Nc4ccc(OCc5cccc(F)c5)c(Cl)c4)c3c2)o1 [Lap, lapatinib]
IC50 [3]: 54 ± 14 µM | IC50 [4]: > 100 µM | percent of cells survival at 100 μM ([4]; C6, 100 μM): 89 ± 5% | percentages of cell survival at 100 μM ([4]; C6, 100 μM): 89 ± 5% | IC50 [5]: 6.25 ± 0.05 µM

10B-boronophenylalanine fructose [Compound 10BPA-fr]
Surviving Fraction ([11]; 0.1 ppm equivalents of 10B): 89 ± 11% | Surviving Fraction ([11]; 1.0 ppm equivalents of 10B): 71 ± 11% | Surviving Fraction ([11]; 10.0 ppm equivalents of 10B): 92 ± 6%

Cn1nnc2c(C(N)=O)ncn2c1=O [Tmz, temozolomide]
mouse survival time [12, 13]: 27 days | time to mouse deaths [12, 13]: 23 days | median survival ([12]; Tmz 4 mg/kg/day ip three times a week): 23 days
